The source of these data is patent publication US9730914B2, “3,5-diaminopyrazole kinase inhibitors” (Axikin Pharmaceuticals, Inc., priority 2014, dated 2017).

The target of one experiment is T1, JAK3 (Homo sapiens, UniProt P52333).
T1 construct: made in house; host or cells: E. coli BL21-derived host (T7 phage) or HEK-293
In words: Kinase competition binding assay (Kd, qPCR readout), JAK3. The note with it: for Kd: Kd class, JAK3, read-out: JAK3 Activity Level; for RCK:JAK3 selectivity ratio: ratio Kd (JAK3): Kd (RCK). The procedure:
(§1) For most assays, kinase-tagged T7 phage strains were prepared in an E. coli host derived from the BL21 strain. E. coli were grown to log-phase and infected with T7 phage and incubated with shaking at 32° C. until lysis. The lysates were centrifuged and filtered to remove cell debris. The remaining kinases were produced in HEK-293 cells and subsequently tagged with DNA for quantitative PCR (qPCR) detection.
(§2) Streptavidin-coated magnetic beads were treated with biotinylated small molecule ligands for 30 minutes at room temperature to generate affinity resins for kinase assays. The liganded beads were blocked with excess biotin and washed with blocking buffer (SeaBlock (Pierce), 1% BSA, 0.05% Tween 20, 1 mM DTT) to remove unbound ligand and to reduce nonspecific binding. Binding reactions were assembled by combining kinases, liganded affinity beads, and test compounds in 1× binding buffer (20% SeaBlock, 0.17×PBS, 0.05% Tween 20, 6 mM DTT). All reactions were performed in polystyrene 96-well plates in a final volume of 0.135 mL. The assay plates were incubated at room temperature with shaking for 1 hour and the affinity beads were washed with wash buffer (1×PBS, 0.05% Tween 20). The beads were then re-suspended in elution buffer (1×PBS, 0.05% Tween 20, 0.5 μM non-biotinylated affinity ligand) and incubated at room temperature with shaking for 30 minutes. The kinase concentration in the eluates was measured by qPCR.
(§3) An 11-point 3-fold serial dilution of each test compound was prepared in 100% DMSO at 100× final test concentration and subsequently diluted to 1× in the assay (final DMSO concentration=1%). Most Kd values were determined using a compound top concentration=30,000 nM. If the initial Kd determined was <0.5 nM, (the lowest concentration tested), the measurement was repeated with a serial dilution starting at a lower top concentration. A more detailed description of this assay may be found in Fabian, M. A. et al. Nat. Biotechnol. 2005, 23, 329-336, which is incorporated herein in its entirety.
(§4) The biological results of inhibition of the kinase domain protein of RC kinase (RCK) and JAK2 and JAK3 are summarized in Tables 2 and 3, wherein A represents a Kd of <50 nM; B represents 50 nM<Kd<100 nM; C represents 100 nM<Kd<1000 nM; and D represents a Kd>1000 nM.
Similarly, RCK:JAK3 selectivity, as measured by the ratio Kd (JAK3): Kd (RCK) is represented as follows: A represents Kd (JAK3): Kd (RCK)>100; B represents 10<Kd (JAK3): Kd (RCK)<100; C represents 1<Kd (JAK3): Kd (RCK)<10; and D represents Kd (JAK3): Kd(RCK)<1.
On the technique in general: Real-time PCR tracks product formation cycle by cycle.

Experiment [1] addresses T2, kinase domain protein of RC kinase (RCK) (Homo sapiens, UniProt Q56UN5).
T2 construct: made in house; host or cells: E. coli BL21-derived host (T7 phage) or HEK-293
T2 sequence (Q56UN5 1061-1324 limits assumed): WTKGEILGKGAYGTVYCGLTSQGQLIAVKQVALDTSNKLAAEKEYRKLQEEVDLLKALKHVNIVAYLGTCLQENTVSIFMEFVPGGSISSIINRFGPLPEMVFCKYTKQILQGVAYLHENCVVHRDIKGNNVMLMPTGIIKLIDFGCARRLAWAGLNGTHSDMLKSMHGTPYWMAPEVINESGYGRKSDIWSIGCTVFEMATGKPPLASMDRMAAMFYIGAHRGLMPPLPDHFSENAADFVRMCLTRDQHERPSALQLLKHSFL
In words: Kinase competition binding assay (Kd, qPCR readout), RC kinase. The note with it: Kd class, read-out: RCK Activity Level. The protocol: as §1, §2, §3, §4

In the next experiment the target is T3, JAK2 (Homo sapiens, UniProt O60674).
T3 construct: made in house; host or cells: E. coli BL21-derived host (T7 phage) or HEK-293
In words: Kinase competition binding assay (Kd, qPCR readout), JAK2. The note with it: for Kd: Kd class, JAK2, read-out: JAK2 Activity Level; for RCK:JAK2 selectivity ratio: ratio Kd (JAK2): Kd(RCK). The procedure:
as §1, §2, §3, §4
Additionally, RCK:JAK2 selectivity, as measured by the ratio Kd (JAK2): Kd(RCK) is represented as follows: A represents Kd (JAK2): Kd (RCK)>100; B represents 10<Kd(JAK2): Kd (RCK)<100; C represents 1<Kd (JAK2): Kd (RCK)<10; and D represents Kd(JAK2): Kd (RCK)<1.

T1 sequence (P52333 811-1124 limits assumed): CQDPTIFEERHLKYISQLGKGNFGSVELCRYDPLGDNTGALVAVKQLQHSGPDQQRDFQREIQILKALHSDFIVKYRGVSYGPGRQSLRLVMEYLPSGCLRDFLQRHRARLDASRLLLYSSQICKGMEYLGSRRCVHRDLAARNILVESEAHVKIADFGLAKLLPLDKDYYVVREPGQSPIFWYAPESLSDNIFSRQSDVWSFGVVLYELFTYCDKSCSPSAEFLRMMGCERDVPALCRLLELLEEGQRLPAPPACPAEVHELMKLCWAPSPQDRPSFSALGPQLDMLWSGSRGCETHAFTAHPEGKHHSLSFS
T3 sequence (O60674 840-1132 limits assumed): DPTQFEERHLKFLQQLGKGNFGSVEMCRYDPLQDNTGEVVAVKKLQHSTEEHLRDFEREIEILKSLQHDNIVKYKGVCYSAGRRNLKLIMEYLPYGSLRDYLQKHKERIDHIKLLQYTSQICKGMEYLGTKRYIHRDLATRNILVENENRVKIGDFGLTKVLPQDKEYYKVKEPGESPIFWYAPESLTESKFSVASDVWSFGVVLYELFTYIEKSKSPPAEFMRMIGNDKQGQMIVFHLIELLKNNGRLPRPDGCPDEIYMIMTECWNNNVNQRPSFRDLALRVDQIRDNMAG

For the compound `Cc1cc(Nc2n[nH]c(NCc3cc(C)c(O)c(C)c3)c2C(N)=O)cnc1N1CCN(C)CC1` [Compound 14, 5-((4-hydroxy-3,5-dimethylbenzyl)amino)-3-((5-methyl-6-(4-methylpiperazin-1-yl)pyridin-3-yl)amino)-1H-pyrazole-4-carboxamide], the Kd (on JAK3; in experiment [1]; at JAK2) was above 1000 nM each time. The “RCK:JAK3 selectivity ratio” value on JAK3 was “B (B represents 10<Kd (JAK3): Kd (RCK)<100)”. Further, the “RCK:JAK2 selectivity ratio” value at JAK2 is “C (C represents 1<Kd (JAK2): Kd (RCK)<10)”.
Take `Cc1cc(CNc2[nH]nc(Nc3ccc(N4C[C@@H](C)O[C@@H](C)C4)c(Cl)c3)c2C(N)=O)cc(C)c1O` [Compound 15, 3-((3-chloro-4-(2,6-dimethylmorpholino)phenyl)amino)-5-((4-hydroxy-3,5-dimethylbenzyl)amino)-1H-pyrazole-4-carboxamide]: the Kd at JAK3 was above 1000 nM; in experiment [1] it was 50 to 100 nM; at JAK2 it was above 1000 nM. Besides, the “RCK:JAK3 selectivity ratio” value at JAK3 is recorded as “B (B represents 10<Kd (JAK3): Kd (RCK)<100)”. The “RCK:JAK2 selectivity ratio” value on JAK2 is “B (B represents 10<Kd(JAK2): Kd (RCK)<100)”.
Take `Cc1cc(CNc2[nH]nc(Nc3ccc(-c4cccnc4)cc3)c2C(N)=O)cc(C)c1O` [Compound 16, 5-((4-hydroxy-3,5-dimethylbenzyl)amino)-3-((4-(pyridin-3-yl)phenyl)amino)-1H-pyrazole-4-carboxamide]: at JAK3, the Kd was above 1000 nM and the “RCK:JAK3 selectivity ratio” value was “B (B represents 10<Kd (JAK3): Kd (RCK)<100)”. Moreover, the Kd in experiment [1] lay in the range of 50 to 100 nM. At JAK2, the Kd is above 1000 nM and the “RCK:JAK2 selectivity ratio” value is reported as “B (B represents 10<Kd(JAK2): Kd (RCK)<100)”.
Turning to `Cc1cc(CNc2[nH]nc(Nc3ccc(N4CCN(C(C)C)CC4)c(Cl)c3)c2C(N)=O)cc(C)c1O` [Compound 17, 3-((3-chloro-4-(4-isopropylpiperazin-1-yl)phenyl)amino)-5-((4-hydroxy-3,5-dimethylbenzyl)amino)-1H-pyrazole-4-carboxamide], the Kd at JAK3 is 100 to 1000 nM; in experiment [1] it was below 50 nM; at JAK2, 100 to 1000 nM. On JAK3, the “RCK:JAK3 selectivity ratio” value was “A (A represents Kd (JAK3): Kd (RCK)>100)”. Further, the “RCK:JAK2 selectivity ratio” value at JAK2 was “A (A represents Kd (JAK2): Kd (RCK)>100)”.
For `Cc1cc(CNc2[nH]nc(Nc3ccc(-c4ccccc4)cc3)c2C(N)=O)cc(C)c1O` [Compound 18, 3-([1,1′-biphenyl]-4-ylamino)-5-((4-hydroxy-3,5-dimethylbenzyl)amino)-1H-pyrazole-4-carboxamide], the Kd (on JAK3; in experiment [1]; on JAK2) was above 1000 nM throughout. Also, the “RCK:JAK3 selectivity ratio” value at JAK3 was “C (C represents 1<Kd (JAK3): Kd (RCK)<10)”. For the same compound, the “RCK:JAK2 selectivity ratio” value on JAK2 is “C (C represents 1<Kd (JAK2): Kd (RCK)<10)”.
For `Cc1cc(CNc2[nH]nc(Nc3ccc(-n4ccnc4)cc3)c2C(N)=O)cc(C)c1O` [Compound 19, 3-((4-(1H-imidazol-1-yl)phenyl)amino)-5-((4-hydroxy-3,5-dimethylbenzyl)amino)-1H-pyrazole-4-carboxamide], on JAK3, the Kd was above 1000 nM and the “RCK:JAK3 selectivity ratio” value was “A (A represents Kd (JAK3): Kd (RCK)>100)”. In addition, the Kd in experiment [1] is 100 to 1000 nM. Moreover, at JAK2, the Kd was above 1000 nM and the “RCK:JAK2 selectivity ratio” value is recorded as “A (A represents Kd (JAK2): Kd (RCK)>100)”.
`COc1ccc(Nc2n[nH]c(NCc3cc(C)c(O)c(C)c3)c2C(N)=O)cc1` [Compound 20, 5-((4-hydroxy-3,5-dimethylbenzyl)amino)-3-((4-methoxyphenyl)amino)-1H-pyrazole-4-carboxamide]: at JAK3, the Kd is above 1000 nM and the “RCK:JAK3 selectivity ratio” value is reported as “B (B represents 10<Kd (JAK3): Kd (RCK)<100)”. The Kd in experiment [1] was in the range of 100 to 1000 nM. Further, at JAK2, the Kd was above 1000 nM and the “RCK:JAK2 selectivity ratio” value is recorded as “C (C represents 1<Kd (JAK2): Kd (RCK)<10)”.
`Cc1cc(CNc2[nH]nc(Nc3ccc(C(C)(C)C)cc3)c2C(N)=O)cc(C)c1O` [Compound 21, 3-((4-(tert-butyl)phenyl)amino)-5-((4-hydroxy-3,5-dimethylbenzyl)amino)-1H-pyrazole-4-carboxamide]: the Kd (at JAK3; in experiment [1]; on JAK2) was above 1000 nM each time. Besides, the “RCK:JAK2 selectivity ratio” value at JAK2 is “C (C represents 1<Kd (JAK2): Kd (RCK)<10)”.
As for `Cc1cc(CNc2[nH]nc(Nc3ccc4[nH]ncc4c3)c2C(N)=O)cc(C)c1O` [Compound 22, 3-((1H-indazol-5-yl)amino)-5-((4-hydroxy-3,5-dimethylbenzyl)amino)-1H-pyrazole-4-carboxamide], at JAK3, the Kd was above 1000 nM and the “RCK:JAK3 selectivity ratio” value is “B (B represents 10<Kd (JAK3): Kd (RCK)<100)”. The Kd in experiment [1] fell in the range of 100 to 1000 nM. In addition, at JAK2, the Kd is above 1000 nM and the “RCK:JAK2 selectivity ratio” value is “C (C represents 1<Kd (JAK2): Kd (RCK)<10)”.
Regarding `Cc1cc(CNc2[nH]nc(Nc3ccc(N4CCC(N5CCC(C)CC5)CC4)cc3)c2C(N)=O)cc(C)c1O` [Compound 23, 5-((4-hydroxy-3,5-dimethylbenzyl)amino)-3-((4-(4-methyl-[1,4′-bipiperidin]-1′-yl)phenyl)amino)-1H-pyrazole-4-carboxamide], the Kd at JAK3 is above 1000 nM; in experiment [1], below 50 nM; at JAK2, above 1000 nM. In addition, the “RCK:JAK3 selectivity ratio” value on JAK3 is “B (B represents 10<Kd (JAK3): Kd (RCK)<100)”. Moreover, the “RCK:JAK2 selectivity ratio” value at JAK2 is “B (B represents 10<Kd(JAK2): Kd (RCK)<100)”.
For `Cc1cc(CNc2[nH]nc(Nc3ccc(N4CCN(C(=O)N5CCCC5)CC4)cc3)c2C(N)=O)cc(C)c1O` [Compound 24, 5-((4-hydroxy-3,5-dimethylbenzyl)amino)-3-((4-(4-(pyrrolidine-1-carbonyl)piperazin-1-yl)phenyl)amino)-1H-pyrazole-4-carboxamide], on JAK3, the Kd is above 1000 nM and the “RCK:JAK3 selectivity ratio” value is given as “A (A represents Kd (JAK3): Kd (RCK)>100)”. Further, the Kd in experiment [1] was below 50 nM. Further, at JAK2, the Kd was above 1000 nM and the “RCK:JAK2 selectivity ratio” value is recorded as “B (B represents 10<Kd(JAK2): Kd (RCK)<100)”.
Consider `Cc1cc(CNc2[nH]nc(Nc3ccc(N4CCC(F)CC4)cc3)c2C(N)=O)cc(C)c1O` [Compound 25, 3-((4-(4-fluoropiperidin-1-yl)phenyl)amino)-5-((4-hydroxy-3,5-dimethylbenzyl)amino)-1H-pyrazole-4-carboxamide], for which the figures for the Kd (at JAK3; in experiment [1]; at JAK2) were above 1000 nM, 100 to 1000 nM and above 1000 nM, respectively. Besides, the “RCK:JAK3 selectivity ratio” value at JAK3 is given as “B (B represents 10<Kd (JAK3): Kd (RCK)<100)”. On JAK2, the “RCK:JAK2 selectivity ratio” value is listed as “C (C represents 1<Kd (JAK2): Kd (RCK)<10)”.
Take `Cc1cc(CNc2[nH]nc(Nc3ccc(N4C[C@@H](C)O[C@@H](C)C4)nc3)c2C(N)=O)cc(C)c1O` [Compound 26]: on JAK3, the Kd was above 1000 nM and the “RCK:JAK3 selectivity ratio” value is “B (B represents 10<Kd (JAK3): Kd (RCK)<100)”. The Kd in experiment [1] was in the range of 100 to 1000 nM. Further, at JAK2, the Kd is above 1000 nM and the “RCK:JAK2 selectivity ratio” value is listed as “B (B represents 10<Kd(JAK2): Kd (RCK)<100)”.
Consider `Cc1cc(CNc2[nH]nc(Nc3ccc(N4CCCCC4)cc3)c2C(N)=O)cc(C)c1O` [Compound 27, 5-((4-hydroxy-3,5-dimethylbenzyl)amino)-3-((4-(piperidin-1-yl)phenyl)amino)-1H-pyrazole-4-carboxamide], for which, on JAK3, the Kd was above 1000 nM and the “RCK:JAK3 selectivity ratio” value was “B (B represents 10<Kd (JAK3): Kd (RCK)<100)”. For the same compound, the Kd in experiment [1] lay within 100 to 1000 nM. Besides, at JAK2, the Kd was above 1000 nM and the “RCK:JAK2 selectivity ratio” value is on record as “B (B represents 10<Kd(JAK2): Kd (RCK)<100)”.
